This passage reports TGI results from PubChem BioAssay (NCI).

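Step 1: Grow cells in 96-well plates. Step 2: Expose to compound for 48 hours at 5 concentrations. Step 3: Interpolate endpoints linearly; if unreached, use highest concentration. TGI denotes the concentration required for complete inhibition of growth.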

Among the test systems are HCT-116 colon; HOP-92 NSCLC; EKVX NSCLC; SR leukemia; SNB-19 CNS; KM12 colon; SK-OV-3 ovarian; MOLT-4 leukemia; SK-MEL-2 melanoma; HOP-62 NSCLC.
Holding throughout (assay): inhibition of tumour cell growth, NCI panel, 48 h

Take `CC(C)(C)OC(=O)N1C(c2cccnc2)=CC[C@H]2C3CC=C(c4cccnc4)[C@@]3(C)CC[C@@H]21` (stereo not given in full): the TGI in the test on HCT-116 colon stood at 17.5 µM; with HOP-92 NSCLC, 8.34 µM; in the test on EKVX NSCLC it was 10.3 µM; with SR leukemia, 22.2 µM; in the test with SNB-19 CNS, 17.2 µM; with KM12 colon it was 28.8 µM. For the same molecule, the TGI with SK-OV-3 ovarian is 15 µM; in the test with MOLT-4 leukemia, more than 100 µM; in the test with SK-MEL-2 melanoma, 8.39 µM; in the test with HOP-62 NSCLC, 16.3 µM.
Take `CC(=O)OCc1ccc2oc(=O)c(C(=O)Oc3ccccc3)cc2c1`: the TGI in the test on HCT-116 colon is 30.6 µM; in the test with HOP-92 NSCLC it was 40.2 µM; in the test with EKVX NSCLC it was more than 100 µM; in the test with SR leukemia it was more than 100 µM; in the test with SNB-19 CNS, more than 100 µM; in the test on KM12 colon, more than 100 µM. In addition, the TGI in the test on SK-OV-3 ovarian, with MOLT-4 leukemia, in the test with SK-MEL-2 melanoma and in the test with HOP-62 NSCLC was more than 100 µM each time.
Consider `CCCCCCCCCCCCCCCCCCN(C)CC(COP(=O)([O-])OCC[N+](C)(C)C)OC` (stereo not given), for which the TGI in the test with HCT-116 colon was found to be 43.3 µM; with HOP-92 NSCLC, 35.6 µM; with EKVX NSCLC, 48.2 µM; in the test on SR leukemia it was 28.6 µM; in the test on SNB-19 CNS it was 18.5 µM; in the test on KM12 colon, 7.71 µM. In addition, the TGI was found to be 27.4 µM in the test on SK-OV-3 ovarian, 11.3 µM with MOLT-4 leukemia, 53.7 µM in the test on SK-MEL-2 melanoma and 28.4 µM with HOP-62 NSCLC.
In the case of `COc1cc(/C=c2\sc3n(c2=O)C(c2ccc(Cl)cc2)C2=C(CCCC2C)N=3)cc(OC)c1OC` (stereo not given), the TGI in the test on HCT-116 colon, with HOP-92 NSCLC, in the test with EKVX NSCLC, in the test with SR leukemia, in the test with SNB-19 CNS and in the test on KM12 colon was more than 100 µM throughout. Further, the TGI with SK-OV-3 ovarian, with MOLT-4 leukemia, in the test on SK-MEL-2 melanoma and with HOP-62 NSCLC was more than 100 µM each time.
Turning to `Cn1c(-c2cccc([N+](=O)[O-])c2)[n+](C)c2ccccc21`, the TGI with HCT-116 colon, with HOP-92 NSCLC, in the test with EKVX NSCLC, in the test on SR leukemia, with SNB-19 CNS and in the test on KM12 colon was more than 100 µM throughout. The TGI with SK-OV-3 ovarian, with MOLT-4 leukemia, in the test on SK-MEL-2 melanoma and in the test with HOP-62 NSCLC was more than 100 µM each time.
Take `Cc1cc2c([nH]c3ccccc32)c2c1OC(C)(C)C1C3CC(C)(C)Oc4c(C)cc5c6ccccc6n(c5c43)C21` (stereo not given): the TGI with HCT-116 colon, in the test with HOP-92 NSCLC, in the test on EKVX NSCLC, in the test with SR leukemia, in the test with SNB-19 CNS and with KM12 colon was more than 100 µM in each case. Further, the TGI in the test on SK-OV-3 ovarian, with MOLT-4 leukemia, with SK-MEL-2 melanoma and with HOP-62 NSCLC was more than 100 µM in each case.
Regarding `CCOC(=O)c1ccc(NCC#CCN2CCCCC2)cc1`, the TGI with HCT-116 colon, in the test on HOP-92 NSCLC, with EKVX NSCLC, with SR leukemia, in the test with SNB-19 CNS and in the test on KM12 colon was more than 100 µM each time. Also, the TGI with SK-OV-3 ovarian, in the test on MOLT-4 leukemia, in the test with SK-MEL-2 melanoma and in the test on HOP-62 NSCLC was more than 100 µM each time.
In the case of `C/C(=N\NC(=S)NCCCNC(=S)N/N=C(\C)c1ccccn1)c1ccccn1`, the TGI in the test with HCT-116 colon was 24 µM; in the test on HOP-92 NSCLC it was more than 66.2 µM; in the test with EKVX NSCLC it was more than 63.9 µM; in the test on SR leukemia it was 6.19 µM; in the test with SNB-19 CNS, more than 69.7 µM; in the test on KM12 colon it was more than 76.1 µM. Besides, the TGI in the test on SK-OV-3 ovarian was more than 35.1 µM; in the test on MOLT-4 leukemia it was more than 100 µM; with SK-MEL-2 melanoma, more than 50.9 µM; in the test with HOP-62 NSCLC, 20.7 µM.
As to `O=C1Oc2cc(O)cc(/C=C/c3ccc(O)cc3)c2[C@@]12c1c(O)cc(O)cc1OC2c1cccc(O)c1` (stereo not given in full), the TGI was more than 100 µM with HCT-116 colon; more than 100 µM with HOP-92 NSCLC; more than 100 µM with EKVX NSCLC; more than 100 µM in the test on SR leukemia; 91.6 µM in the test with SNB-19 CNS; more than 100 µM in the test with KM12 colon. In addition, the TGI in the test on SK-OV-3 ovarian was 93.5 µM; with MOLT-4 leukemia, more than 100 µM; in the test on SK-MEL-2 melanoma it was 54.8 µM; with HOP-62 NSCLC, 65.5 µM.
As for `N#Cc1cnc(N)nc1NCC1(CO)CC(CCc2ccccc2)C1` (stereo not given), the TGI in the test on HCT-116 colon, in the test on HOP-92 NSCLC, with EKVX NSCLC, with SR leukemia, in the test with SNB-19 CNS and in the test on KM12 colon was more than 100 µM throughout. Moreover, the TGI with SK-OV-3 ovarian, with MOLT-4 leukemia, in the test with SK-MEL-2 melanoma and in the test on HOP-62 NSCLC was more than 100 µM throughout.
Consider `O=[N+]([O-])c1cc(-c2nc(-c3ccccc3)c(-c3ccccc3)[nH]2)c(O)c([N+](=O)[O-])c1`, for which the TGI with HCT-116 colon is 33.4 µM; in the test on HOP-92 NSCLC, 36.9 µM; in the test with EKVX NSCLC it was 58.9 µM; with SR leukemia it was 58.7 µM; in the test with SNB-19 CNS, more than 100 µM; with KM12 colon, 65.1 µM. Also, the TGI in the test on SK-OV-3 ovarian stood at 40.6 µM; with MOLT-4 leukemia, 61.7 µM; in the test with SK-MEL-2 melanoma, 38.3 µM; with HOP-62 NSCLC, 43.4 µM.
With `Cc1ccc(S(=O)(=O)NNCNC(=O)c2ccccc2)cc1`, the TGI is more than 100 µM in the test with HCT-116 colon; more than 100 µM in the test on HOP-92 NSCLC; more than 100 µM in the test with EKVX NSCLC; 33.1 µM with SR leukemia; more than 100 µM in the test with SNB-19 CNS; more than 100 µM in the test with KM12 colon. The TGI with SK-OV-3 ovarian, with MOLT-4 leukemia, in the test with SK-MEL-2 melanoma and with HOP-62 NSCLC was more than 100 µM throughout.
Consider `CC(=O)O[C@H]1[C@H](OC(=O)CC(C)(O)CC(=O)O)C[C@]2(C)C3=C(CCC2C1(C)C)[C@]1(C)CC[C@H]([C@H]2CC[C@H](C(C)(C)O)OC2O)[C@@]1(C)[C@@H](O)C3` (stereo not given in full), for which the TGI with HCT-116 colon was determined as 44.7 µM; in the test on HOP-92 NSCLC it was 31.1 µM; with EKVX NSCLC it was 38.9 µM; in the test with SR leukemia, 60.1 µM; with SNB-19 CNS it was 33.6 µM; with KM12 colon, 38.6 µM. Besides, the TGI in the test on SK-OV-3 ovarian is 30.6 µM; in the test on MOLT-4 leukemia, 40.9 µM; with SK-MEL-2 melanoma, 37.1 µM; in the test on HOP-62 NSCLC, 32.7 µM.
`CCOC(=O)C(SCCO)C(C(=O)OCC)n1ccc(=O)[nH]c1=O` (stereo not given): the TGI in the test with HCT-116 colon was more than 57.4 µM; with HOP-92 NSCLC, 69.1 µM; with EKVX NSCLC, more than 100 µM; in the test on SR leukemia it was 34 µM; in the test with SNB-19 CNS, more than 100 µM; in the test with KM12 colon, more than 87.4 µM. Moreover, the TGI was more than 100 µM in the test on SK-OV-3 ovarian, 21.7 µM with MOLT-4 leukemia, more than 79.8 µM with SK-MEL-2 melanoma and more than 96.6 µM in the test on HOP-62 NSCLC.
